US10822317B2, “Methods and compositions for wound healing” (QBiotics Limited, priority 2013, dated 2020)

Key:
[1] = system: immortalised human keratinocyte cells (HaCaT); experiment: Scratch repopulation and closure with HaCaT; format: cell-based; conditions: 48 hours, ± standard error
Experimental: The ability of immortalised human keratinocyte cells (HaCaT) to migrate across a scratch wound made in a confluent monolayer following treatment with either Compound 1 or Compound 37 was determined by the following method.
Trypsinised HaCaT cells were seeded at a cell density of 7.4×10^4 cells/mL in 24-well BD Falcon flat-bottomed, tissue culture plates (VWR International, UK) in 1 mL Dulbecco's Modified Eagle Medium (DMEM), supplemented with L-glutamine (2 mM), antibiotics (100 U/mL penicillin G sodium, 100 μg/mL streptomycin sulphate and 0.25 μg/mL amphotericin B); and 10% foetal calf serum (all Invitrogen Ltd., UK) to give a cell density of 7.4×10^4 cells seeded in each well. The cells were then maintained at 37° C. in a 5% CO2/95% air atmosphere overnight. The following morning, the 10% foetal calf serum-containing DMEM was replaced with serum-free DMEM and the HaCaT cells were subsequently serum-starved in DMEM for 48 hr.
After 48 hr, the serum-free DMEM was removed and a single scratch ‘wound’ made with a sterile pipette across each cell layer. Following washing twice in 1 mL PBS, Compound 1- or Compound 37-containing medium (1 mL) was added to each well. This medium consisted of DMEM, supplemented with L-glutamine (2 mM), antibiotics (as above) and 1% foetal calf serum, in addition to Compound 1 or Compound 37 at final concentrations of 0, 0.001, 0.01, 0.1, 1.0, 10 or 100 μg/mL. There were three replicate wells per concentration for each compound.
The HaCaT cultures were maintained at 37° C. in a 5% CO2/95% air atmosphere and the repopulation of the denuded ‘wound’ areas monitored by Time-Lapse Confocal Microscopy (Leica TCS SP5 Confocal Microscope; Leica Microsystems UK Ltd., UK) at 100× magnification, with digital images captured at fixed positions every 20 min over a 48 h period. The digital image sequences were exported and prepared as .avi movie files, using LAS AF Software (Leica Microsystems). The rates of HaCaT wound closure in vitro were quantified using ImageJ Software (ImageJ 1.37v; http://rsb.info.nih.gov/ij/). The data was analysed by One Way Analysis of Variance with post-test Tukey analysis. Each experiment was performed on 3 separate occasions.

HaCaT cells = experiment: HaCaT proliferation (MTT); format: cell-based, human; parameters: dose or concentration left out as unconfirmed; conditions: 24, 48, 120 and 168 hr; p<0.01
Excerpt: The proliferation experiment assessed the effects of the two compounds on HaCaT proliferation (as measured by MTT) in the culture system at 4 time periods (24, 48, 120 and 168 hr).

[2] = system: immortalised human keratinocyte cells (HaCaT); experiment: Scratch repopulation and closure with HaCaT; format: cell-based; conditions: 48 hrs; 0.001, 0.01 and 0.1 μg/ml; p<0.01

## CC=C(C)C(=O)OC1C(C)C2(O)C(C3OC3(CO)C(O)C3(O)C(=O)C(C)=CC32)C2C(C)(C)C12OC(=O)C(C)CC (stereo not shown) [Compound 1, 12-tigloyl-13-(2-methylbutanoyl)-6,7-epoxy-4,5,9,12,13,20-hexahydroxy-1-tigliaen-3-one]
[1]; 0.001 μg/ml
  % of scratch wound area remaining open after treatment: 8.6 ± 9.4%
[1]; 0.01 μg/ml
  % of scratch wound area remaining open after treatment: 19.7 ± 9.3%
[1]; 0.1 μg/ml
  % of scratch wound area remaining open after treatment: 21.4 ± 5.8%
[1]; 1.0 μg/ml
  % of scratch wound area remaining open after treatment: 35.4 ± 7.9%
[1]; 10 μg/ml
  % of scratch wound area remaining open after treatment: 45.5 ± 7.3%
HaCaT cells
  proliferation of HaCaT cells (MTT) vs control with no compound: increasing proliferation
[2]
  rate of scratch closure compared to the control treatment: significantly increased
